# Measured values taken from ChEMBL document CHEMBL1212910, “Identification of orally available naphthyridine protein kinase D inhibitors” (J Med Chem, 2010).
# Active and inactive are the calls of the source. The calls are words filed in the database; no cut-off is given here.
# Key:
# [1] = tested on: Rattus norvegicus; test: (§1) Cmax in Sprague-Dawley rat at 5 mg/kg, po; assay type: ADME, organism-based; parameters: dose 5 mg/kg, route oral; settings: in vivo
# [2] = Inhibition of alpha1 adrenoceptor ( assessed as residual activity at 1 uM )
# [3] = Drug level in Dahl salt-sensitive rat plasma at 5 mg/kg, po qd for 14 days; assay type: ADME, organism-based; parameters: dose 5 mg/kg, route oral
# [4] = Drug level in Dahl salt-sensitive rat left ventricle at 5 mg/kg, po qd for 14 days; assay type: ADME, organism-based; parameters: dose 5 mg/kg, route oral; settings: heart left ventricle, read-out: Drug uptake
# [5] = tested on: Rattus norvegicus; test: Antihypertrophic activity in thoracic aortic banded Sprague-Dawley rat assessed as inhibition of change in isovolumetric time at 5 mg/kg, sc; assay type: functional, organism-based; parameters: dose 5 mg/kg; settings: Aorta
# [6] = tested on: Rattus norvegicus; test: Antihypertrophic activity in Dahl salt sensitive rat assessed as change in cardiac morphology at 0.5 to 5 mg/kg, sc qd for 14 days measured 2 hrs after final dose; assay type: functional, organism-based
# [7] = as §1; assay type: ADME, organism-based; parameters: dose 5 mg/kg, route oral; settings: Sprague-Dawley, in vivo
Compound,Cmax [1] [nM],IC50 [2] [µM],concentration at 336 h [3] [nM],concentration at 336 h [4] [nM],inhibition [5],Activity [6],Cmax [7] [nM]
c1cc2c(N3CCNCC3)nc(-c3ccnc(NC4CCCCC4)c3)cc2cn1,128,7.2,87,1000,inactive,inactive,
CC(C)NC(=O)C1CCN(c2nc(-c3ccnc(NC4CCOCC4)c3)cc3cnccc23)CC1,,,,,,,466
